Measurements as given in patent publication EP0808172B1, “COMBINATION OF ANGIOTENSIN CONVERTING ENZYME INHIBITOR AND ALDOSTERONE ANTAGONIST FOR THE TREATMENT OF VENTRICULAR HYPERTROPHY” (priority 1995, dated 1996).

Columns and labels:
[1] = system: patients with symptomatic heart failure; experiment: Human clinical trial: weight and vital signs; format: in vivo, humans; settings: 75 mg dose group, Day 9 and Week 4 visits
Description: (§1) Concurrent medication within the past 30 days. • 2. 12-lead ECG • 3. […] Signs and symptoms within the past 30 days.
Patients were evaluated 9 days after beginning study medication.
(§2) All statistical methods were two-sided.

[2] = system: patients with symptomatic heart failure; experiment: Human clinical trial: cardiac assessments (sodium retention score, NYHA class) and changes in patient therapy; format: in vivo, humans; settings: spironolactone groups vs placebo; difference not statistically significant
Text: as §1, §2

[3] = system: patients afflicted with congestive heart failure; settings: spironolactone 100 mg/day coadministered with an ACE inhibitor; van Vliet et al 1993; cited from earlier work
[4] = system: patients with symptomatic heart failure; experiment: Human clinical trial: hospitalizations and deaths
[5] = system: patients with symptomatic heart failure; experiment: Human clinical trial: neurohormones (urinary aldosterone, plasma renin activity, N-terminal ANF); settings: 12 week visit, dose response (p = 0.002)

CC(=O)S[C@@H]1CC2=CC(=O)CC[C@]2(C)[C@H]2CC[C@@]3(C)[C@@H](CC[C@@]34CCC(=O)O4)[C@H]12 [Spironolactone, 17-hydroxy-7α-mercapto-3-oxo-17α-pregn-4-ene-21-carboxylic acid γ-lactone acetate]
changes from baseline in body weight [1]: more weight loss than other patients | NYHA Class [2]: trend toward improvement | patients in whom the treatment was highly effective [3]: 13 of 16 | patients died within 30 days after the study was completed ([4]; previously at the 50 mg dose): Three | Hospitalizations, percent of patients ([4]; spironolactone 12.5 mg): 7.3% | Hospitalizations, percent of patients ([4]; spironolactone 25 mg): 6.6% | Hospitalizations, percent of patients ([4]; spironolactone 50 mg): 27.6% | Hospitalizations, percent of patients ([4]; spironolactone 75 mg): 14.6% | Urinary aldosterone excretion, change from baseline [5]: Greater increases were seen at higher doses of spironolactone
